Paper PMC10888688 (International Journal of Molecular Sciences, 2024)
≈ marks a conversion by molar mass, not a printed value. Entries after “also recorded” stand apart in the source; their conditions may differ. Ends that are not written are not given here.

What was measured:
[1] = system: human kidney cell line HEK 293T; experiment: MTS cell survival assay, HEK 293T; type: cell-based; conditions: OD490, overnight at 37 °C/5% CO2, Figure 1
Description: (§1) Assays were conducted in complete media for cells Dulbecco’s Modified Eagle Medium (DMEM; Gibco; Waltham, MA USA, catalog number: 11995065) supplemented with 10% fetal bovine serum (FBS; Hyclone; Logan, UT, USA, catalog number: SV30160.03HI-1). […] All dose-response peptide dilutions were prepared in a U-bottom 96-well plate. 0.02 × 10^6 cells/50 µL of complete media were seeded overnight per well in a 96-well plate, and 105 µL of serum-free (sf) DMEM were added. Cells and peptides were incubated at 37 °C/5% CO2 overnight. Cell viability was checked using MTS assay and read after 30–45 min, and absorbance at OD490 was read using Tecan Infinite 200 Pro plate reader (Tecan, Mannedrof, Switzerland, CellTiter96®AQueous One Solution Cell Proliferation Assay (MTS); catalog number: G3580).

[2] = system: Enterococcus faecalis ATCC 29212; experiment: MIC, broth dilution, E. faecalis; type: cell-based; conditions: MH broth, overnight at 37 °C, peptide 0 to 16 μM, OD600, E. faecalis ATCC 29212
Description: (§2) Typically, an overnight bacterial culture was grown to the mid-log phase on a shaker at 183 rpm, at 37 °C, and then diluted in 2X Mueller Hinton (MH) broth (Millipore-Sigma^TM, Saint Louis, MO, USA) to achieve a final OD of 0.002. In a 96-well plate, 100 μL of the diluted bacterial culture along with 100 μL of peptide, concentrations ranging from 0 μM to 16 μM, was added and incubated overnight at 37 °C. Peptide concentrations were estimated by UV absorbance at a wavelength of 274 nm using a molar extinction coefficient (ε) of 1420 M^−1 cm^−1. Bacterial growth inhibition was determined by absorbance of 96 well plates at OD600 nm using a Cytation spectrophotometer (Agilent, Santa Clara, CA, USA).

LptAm of E. coli = biological target: T1, LptAm of E. coli (Escherichia coli, UniProt P0ADV1); experiment: LptAm binding by ITC
T1 construct: Recombinant LptAm (residues 28–159) of E. coli; His-tag; made in house; host or cells: E. coli BL21

[3] = system: Acinetobacter baumannii ATCC BAA-1798; experiment: MIC, A. baumannii; type: cell-based; conditions: A. baumannii ATCC BAA-1798; broth dilution, overnight at 37 °C, peptide 0 to 16 μM
Description: as §2

[4] = system: Streptococcus pyogen ATCC 19615; experiment: MIC, broth dilution, S. pyogenes; type: cell-based, Streptococcus pyogenes; conditions: MH broth, overnight at 37 °C, peptide 0 to 16 μM, OD600, S. pyogenes ATCC 19615
Description: as §2

liver cell line Hep G2 = experiment: MTS cell survival assay, Hep G2; type: cell-based, human; conditions: OD490, overnight at 37 °C/5% CO2, Figure 1
Description: as §1

[5] = system: Escherichia coli ATCC 25922; experiment: MIC, broth dilution, E. coli; type: cell-based; conditions: MH broth, overnight at 37 °C, peptide 0 to 16 μM, OD600, E. coli ATCC 25922
Description: as §2

[6] = cited from earlier work
From the text: Host defense AMPs contain a high potential to combat drug or multidrug-resistant bacterial pathogens. AMPs are evolutionary conserved molecules found in all kingdoms of life that are effective in fending off infections as a part of innate immunity. The broad-spectrum activity of AMPs provides vital lead molecules for the next generation of antibiotics. In particular, the ability of AMPs to kill Gram-negative bacteria can be exploited for the designing of new antibiotics against drug-resistant strains.

[7] = system: outer membrane of Gram-negative bacteria; conditions: binding with negatively charged LPS; cited from earlier work
From the text: (§3) Cationic AMPs are known ...

Gram-negative bacteria [8] = conditions: cited from earlier work
From the text: as §3

Gram-negative bacteria [9] = conditions: cited from earlier work; remark: listed apart in the source
From the text: Currently, viable antibiotics available to mitigate infections caused by drug-resistant Gram-negative bacteria are highly limited. Thanatin, a 21-residue-long insect-derived antimicrobial peptide (AMP), is a promising lead molecule for the potential development of novel antibiotics. […] As a mode of action, cationic thanatin efficiently permeabilizes the LPS-outer membrane and binds to the periplasmic protein LptAm to inhibit outer membrane biogenesis. […] In this work, we have investigated shorter variants of thanatin in terms of their antibacterial activity, atomic resol ... || Previous studies have shown that residues at the N-terminus of thanatin ([…]) can be dispensable for antimicrobial activity. By contrast, deletion of residues at the C-terminus of thanatin drastically reduces activity against Gram-negative bacteria. […] However, antibacterial activity was ...

LptAm = conditions: truncated functional variant of LptA; cited from earlier work
From the text: The 21-residue-long thanatin was isolated from the hemolymph of the bacteria-treated insect Podisus maculiventris. A single disulfide bond between residues Cys11 and […] stabilizes the β-hairpin structure of thanatin with a flexible N-terminus region. […] Cationic AMPs are known ...

[10] = system: periplasmic part of the β-taco domain of LptD; conditions: cited from earlier work
From the text: (§4) In this work, we have investigated shorter variants of thanatin in terms of their antibacterial activity, atomic resol ...

LptA and LptC complex = conditions: binding of LptA; cited from earlier work
From the text: as §4

## CC[C@H](C)[C@H](NC(=O)[C@@H](NC(=O)[C@@H]1CCCN1C(=O)[C@@H](N)C(C)C)[C@@H](C)CC)C(=O)N[C@@H](Cc1ccc(O)cc1)C(=O)N[C@H]1CSSC[C@@H](C(=O)N[C@@H](CCC(N)=O)C(=O)N[C@@H](CCCNC(=N)N)C(=O)N[C@@H](Cc2ccccc2)C(N)=O)NC(=O)[C@H](CCCCN)NC(=O)[C@@H](CCCCN)NC(=O)[C@H]([C@@H](C)O)NC(=O)[C@H](CCCNC(=N)N)NC(=O)[C@H](CCCNC(=N)N)NC(=O)[C@H](CC(N)=O)NC1=O [VF16]
[1]
  toxicity / cell survival, HEK 293T, in words: did not show any detectable toxicity; also recorded: essentially non-toxic as both the cell lines demonstrate a high percentage of survival
[2]
  MIC (EF): >16 µM
LptAm of E. coli
  Kd: 250 nM
[3]
  MIC (AB): >16 µM
[4]
  MIC (SP): 1 µM (≈ 2.02 µg/mL)
Liver cell line Hep G2
  toxicity / cell survival, Hep G2, in words: did not show any detectable toxicity; also recorded: essentially non-toxic as both the cell lines demonstrate a high percentage of survival
[5]
  MIC (EC): 0.5 µM (≈ 1.01 µg/mL)

## polymyxin B
[6]
  nephrotoxicity, in words: nephrotoxicity

## GSKKPVPIIYCNRRTGKCQRM (disulfide) [thanatin, 21-residue-long insect-derived antimicrobial peptide isolated from Podisus maculiventris, single disulfide bond Cys11-Cys16]
[7]
  outer membrane permeabilization, in words: efficient permeabilization of the outer membrane of Gram-negative bacteria
Gram-negative bacteria [8]
  effect in animal models of sepsis and infections, in words: lowering of Gram-negative bacterial loads and also neutralization of toxicity of LPS
Gram-negative bacteria [9]; Enterobacter group, e.g., E. coli and K. pneumoniae, background statement, no reference given
  activity against Gram-negative pathogens, in words (abstract): extremely potent
Gram-negative bacteria [9]; including drug-resistant strains of E. coli and K. pneumoniae
  activity against Gram-negative bacteria, in words: potent activity
LptAm
  LptAm binding, in words: high-affinity binding with LptAm
[10]
  LptD binding, in words: binds to the periplasmic part of the β-taco domain of LptD
LptA and LptC complex
  inhibition of LPS transport, in words: disrupting LptA and LptC complex

## thanatin analog with M21F substitution: thanatin analog with M21F substitution (GSKKPVPIIYCNRRTGKCQRF; ends and bridges not checked; cysteine pairing not given here; UniProt P55788 1-21, looked up, variant M21F)
Gram-negative bacteria [9]; compared with thanatin
  antibacterial activity of M21F analog, in words: better antibacterial activity
